In ChEMBL document CHEMBL3885861, “Open TG-GATES”:

Organism: Rattus norvegicus
Assay: Open TG-GATES - Regimen: Daily Repeat
Type: toxicity, organism-based, Sprague-Dawley
Parameters: regimen Daily Repeat, gender Male, age 6 weeks
Conditions: in vivo, po, 0 mg/kg, route gavage, dose level Control; for APTT / Bas / Eos / Fbg / Hb / Ht / Lym / MCH / MCHC / MCV / Mono / Neu / PT / Plat / RBC / Ret / WBC: tissue Blood; for KIDNEY_L / KIDNEY_R / KIDNEY_TOTAL: tissue Kidney; for LIVER: tissue Liver; for A/G / ALP / ALT / AST / BUN / CRE / Ca / Cl / DBIL / GLC / IP / K / LDH / Na / PL / RALB / TBIL / TC / TG / TP / gamma-GTP: tissue Plasma

SMILES: CCN1CCCC1CNC(=O)c1cc(S(N)(=O)=O)ccc1OC (configuration not stated) [SULPIRIDE]
- TERMINAL_BW (72 h, time 3 day): 237.8 g
- APTT (72 h, time 3 day): 16.8 s
- Bas (72 h, time 3 day): 0%
- Eos (72 h, time 3 day): 1%
- Fbg (72 h, time 3 day): 286.8 mg/dL
- Hb (72 h, time 3 day): 13.4 g/dL
- Ht (72 h, time 3 day): 41.1%
- Lym (72 h, time 3 day): 81.6%
- MCH (72 h, time 3 day): 20.7 pg
- MCHC (72 h, time 3 day): 32.7%
- MCV (72 h, time 3 day): 63.2 fL
- Mono (72 h, time 3 day): 2.8%
- Neu (72 h, time 3 day): 14%
- PT (72 h, time 3 day): 12.9 s
- Plat (72 h, time 3 day): 117.1 x10_4/uL
- RBC (72 h, time 3 day): 650.4 x10_4/ul
- Ret (72 h, time 3 day): 6.9%
- WBC (72 h, time 3 day): 82.7 x10_2/uL
- KIDNEY_L (72 h, time 3 day): 1.1 g
- KIDNEY_R (72 h, time 3 day): 1 g
- KIDNEY_TOTAL (72 h, time 3 day): 2.1 g
- LIVER (72 h, time 3 day): 11.3 g
- A/G (72 h, time 3 day): 0.9
- ALP (72 h, time 3 day): 1602.4 IU/L
- ALT (72 h, time 3 day): 44.8 IU/L
- AST (72 h, time 3 day): 67.2 IU/L
- BUN (72 h, time 3 day): 15.8 mg/dL
- CRE (72 h, time 3 day): 0.2 mg/dL
- Ca (72 h, time 3 day): 11.1 mg/dL
- Cl (72 h, time 3 day): 104.4 meq/L
- DBIL (72 h, time 3 day): 0.012 mg/dL
- GLC (72 h, time 3 day): 188.8 mg/dL
- IP (72 h, time 3 day): 7.3 mg/dL
- K (72 h, time 3 day): 4.3 meq/L
- LDH (72 h, time 3 day): 73.8 IU/L
- Na (72 h, time 3 day): 140.2 meq/L
- PL (72 h, time 3 day): 153.2 mg/dL
- RALB (72 h, time 3 day): 2.7 g/dL
- TBIL (72 h, time 3 day): 0.054 mg/dL
- TC (72 h, time 3 day): 79.6 mg/dL
- TG (72 h, time 3 day): 108.6 mg/dL
- TP (72 h, time 3 day): 5.7 g/dL
- gamma-GTP (72 h, time 3 day): 1 IU/L
- TERMINAL_BW ([…], time 7 day): 264.7 g
- TERMINAL_BW ([…], time 14 day): 315.8 g
- TERMINAL_BW ([…], time 28 day): 375.6 g
- APTT ([…], time 7 day): 16.6 s
- Bas ([…], time 7 day): 0.4%
- Eos ([…], time 7 day): 1%
- Fbg ([…], time 7 day): 286.6 mg/dL
- Hb ([…], time 7 day): 13.9 g/dL
- Ht ([…], time 7 day): 42%
- Lym ([…], time 7 day): 82%
- MCH ([…], time 7 day): 20.7 pg
- MCHC ([…], time 7 day): 33.2%
- MCV ([…], time 7 day): 62.5 fL
- Mono ([…], time 7 day): 2.4%
- Neu ([…], time 7 day): 14%
- PT ([…], time 7 day): 12.8 s
- Plat ([…], time 7 day): 131 x10_4/uL
- RBC ([…], time 7 day): 672.6 x10_4/ul
- Ret ([…], time 7 day): 5.3%
- WBC ([…], time 7 day): 110.2 x10_2/uL
- APTT ([…], time 14 day): 17.2 s
- Bas ([…], time 14 day): 0.4%
- Eos ([…], time 14 day): 0.8%
- Fbg ([…], time 14 day): 289 mg/dL
- Hb ([…], time 14 day): 14.6 g/dL
- Ht ([…], time 14 day): 43.8%
- Lym ([…], time 14 day): 77.4%
- MCH ([…], time 14 day): 20 pg
- MCHC ([…], time 14 day): 33.3%
- MCV ([…], time 14 day): 60 fL
- Mono ([…], time 14 day): 2.4%
- Neu ([…], time 14 day): 18.6%
- PT ([…], time 14 day): 13 s
- Plat ([…], time 14 day): 112.7 x10_4/uL
- RBC ([…], time 14 day): 731.4 x10_4/ul
- Ret ([…], time 14 day): 3.9%
- WBC ([…], time 14 day): 115 x10_2/uL
- APTT ([…], time 28 day): 19.6 s
- Bas ([…], time 28 day): 0%
- Eos ([…], time 28 day): 1.2%
- Fbg ([…], time 28 day): 286.6 mg/dL
- Hb ([…], time 28 day): 15.8 g/dL
- Ht ([…], time 28 day): 46%
- Lym ([…], time 28 day): 77.4%
- MCH ([…], time 28 day): 19.1 pg
- MCHC ([…], time 28 day): 34.3%
- MCV ([…], time 28 day): 55.6 fL
- Mono ([…], time 28 day): 1.8%
- Neu ([…], time 28 day): 19%
- PT ([…], time 28 day): 12.9 s
- Plat ([…], time 28 day): 119.5 x10_4/uL
- RBC ([…], time 28 day): 827.2 x10_4/ul
- Ret ([…], time 28 day): 2.4%
- WBC ([…], time 28 day): 106.9 x10_2/uL
- KIDNEY_L ([…], time 7 day): 1.1 g
- KIDNEY_R ([…], time 7 day): 1.1 g
- KIDNEY_TOTAL ([…], time 7 day): 2.2 g
- KIDNEY_L ([…], time 14 day): 1.2 g
- KIDNEY_R ([…], time 14 day): 1.2 g
- KIDNEY_TOTAL ([…], time 14 day): 2.4 g
- KIDNEY_L ([…], time 28 day): 1.2 g
- KIDNEY_R ([…], time 28 day): 1.2 g
- KIDNEY_TOTAL ([…], time 28 day): 2.5 g
- LIVER ([…], time 7 day): 12.3 g
- LIVER ([…], time 14 day): 13.1 g
- LIVER ([…], time 28 day): 14.3 g
- A/G ([…], time 7 day): 0.9
- ALP ([…], time 7 day): 1380.6 IU/L
- ALT ([…], time 7 day): 44.2 IU/L
- AST ([…], time 7 day): 64.8 IU/L
- BUN ([…], time 7 day): 16 mg/dL
- CRE ([…], time 7 day): 0.2 mg/dL
- Ca ([…], time 7 day): 10.8 mg/dL
- Cl ([…], time 7 day): 104.4 meq/L
- DBIL ([…], time 7 day): 0.016 mg/dL
- GLC ([…], time 7 day): 181.6 mg/dL
- IP ([…], time 7 day): 7.7 mg/dL
- K ([…], time 7 day): 4.5 meq/L
- LDH ([…], time 7 day): 64.4 IU/L
- Na ([…], time 7 day): 141.2 meq/L
- PL ([…], time 7 day): 152.8 mg/dL
- RALB ([…], time 7 day): 2.6 g/dL
- TBIL ([…], time 7 day): 0.052 mg/dL
- TC ([…], time 7 day): 76.8 mg/dL
- TG ([…], time 7 day): 118 mg/dL
- TP ([…], time 7 day): 5.5 g/dL
- gamma-GTP ([…], time 7 day): 1 IU/L
- A/G ([…], time 14 day): 0.8
- ALP ([…], time 14 day): 1582.6 IU/L
- ALT ([…], time 14 day): 38.8 IU/L
- AST ([…], time 14 day): 68.8 IU/L
- BUN ([…], time 14 day): 17 mg/dL
- CRE ([…], time 14 day): 0.2 mg/dL
- Ca ([…], time 14 day): 11 mg/dL
- Cl ([…], time 14 day): 103.2 meq/L
- DBIL ([…], time 14 day): 0.012 mg/dL
- GLC ([…], time 14 day): 193.8 mg/dL
- IP ([…], time 14 day): 7.4 mg/dL
- K ([…], time 14 day): 3.7 meq/L
- LDH ([…], time 14 day): 67 IU/L
- Na ([…], time 14 day): 141.2 meq/L
- PL ([…], time 14 day): 146.2 mg/dL
- RALB ([…], time 14 day): 2.6 g/dL
- TBIL ([…], time 14 day): 0.056 mg/dL
- TC ([…], time 14 day): 68.2 mg/dL
- TG ([…], time 14 day): 133.4 mg/dL
- TP ([…], time 14 day): 5.8 g/dL
- gamma-GTP ([…], time 14 day): 1 IU/L
- A/G ([…], time 28 day): 0.8
- ALP ([…], time 28 day): 975.6 IU/L
- ALT ([…], time 28 day): 38.2 IU/L
- AST ([…], time 28 day): 63.8 IU/L
- BUN ([…], time 28 day): 17.2 mg/dL
- CRE ([…], time 28 day): 0.3 mg/dL
- Ca ([…], time 28 day): 10.5 mg/dL
- Cl ([…], time 28 day): 104.8 meq/L
- DBIL ([…], time 28 day): 0.012 mg/dL
- GLC ([…], time 28 day): 169.2 mg/dL
- IP ([…], time 28 day): 6.8 mg/dL
- K ([…], time 28 day): 3.7 meq/L
- LDH ([…], time 28 day): 61.8 IU/L
- Na ([…], time 28 day): 143.6 meq/L
- PL ([…], time 28 day): 147 mg/dL
- RALB ([…], time 28 day): 2.8 g/dL
- TBIL ([…], time 28 day): 0.062 mg/dL
- TC ([…], time 28 day): 66.4 mg/dL
- TG ([…], time 28 day): 167 mg/dL
- TP ([…], time 28 day): 6.1 g/dL
- gamma-GTP ([…], time 28 day): 1 IU/L
